Measured values as given in US20230015949A1, “NEISSERIA TREATMENT USING CANNABINOIDS” (priority 2019, published 2023).
≈ marks a conversion by molar mass, not a printed value. Where two headings read alike, the source gives them in different places.

Columns and labels:
Neisseria gonorrhoeae = assay: Broth microdilution MIC assay, 30 isolates (Example 2); type: cell-based
Protocol: In this study, the in vitro spectrum of activity of CBD was determined against 30 isolates comprised of reference strains from the WHO, isolates from the CDC antibiotic resistance bank, and clinical isolates from the Micromyx (MMX) repository, with different resistance phenotypes. Assays were conducted following guidelines recommended by the Clinical and Laboratory Standards Institute (CLSI; 1, 2) with the exception that broth microdilution was used instead of agar dilution.
Stock solutions of all compounds were prepared on the day of testing using solvents recommended by CLSI. Stock solutions of all compounds were made at 101× the final testing concentration. CBD was supplied by Cerilliant (Round Rock, Tex.) as a 1 mg/mL methanolic solution which was stored at −20° C. after receipt. Prior to testing, using a 5 mL aliquot of the CBD methanolic solution, the methanol was dried off and the residual CBD was resuspended in 774 μL DMSO resulting in a 6.464 mg/mL solution.
The test organisms evaluated in this study consisted of Neisseria gonorrhoeae isolates from the Micromyx repository and reference isolates from the American Type Culture Collection (ATCC; Manassas, Va.), Centers for Disease Control and Prevention (CDC; Atlanta, Ga.) or the National Collection of Type Cultures (NCTC; Public Health England, Salisbury, UK). Upon initial receipt at Micromyx, the organisms were sub-cultured onto an appropriate agar medium.
(§1) Following incubation, colonies were harvested from these plates and cell suspensions prepared and frozen at −80° C. with a cryoprotectant. Prior to testing, N. gonorrhoeae isolates were streaked onto Chocolate Agar [Becton Dickinson, (BD), Sparks, Md.; Lot No. 922807]; Staphylococcus aureus ATCC 29213 tested for quality control (QC) purposes was streaked onto Trypticase Soy Agar with 5% Sheep Blood (TSA II; BD; Lot No. 9219399).
For N. gonorrhoeae, a modified medium described by the ATCC as capable of supporting the growth of N. gonorrhoeae (Neisseria peptone medium) was used for the broth microdilution MIC assay. This medium contained 15 g Oxoid Special Peptone (Lot No. 1280296; Oxoid, Hampshire, UK), 1 g corn starch (Lot No. AD-13344-14; Ward's Science; Rochester, N.Y.), 5 g NaCl (Lot No. 57897; VWR, Radnor, Pa.), 4 g K2HPO4 (Lot No. SLBT7061; Sigma), and 1 g KH2PO4 (Lot No. SLBC1921V; Sigma). After autoclaving, the medium was centrifuged at 5,000×g for 10 min, the supernatant was passed through a 0.45 μm filter, and IsoVitaleX supplement (Lot No. 8323954; BD) was added at 1% (v/v).
(§2) MIC values were determined using a broth microdilution procedure described by CLSI (1, 2). Automated liquid handlers (Multidrop 384, Labsystems, Helsinki, Finland; Biomek 2000 and Biomek FX, Beckman Coulter, Fullerton Calif.) were used to conduct serial dilutions and liquid transfers.
(§3) To prepare the drug mother plates, which would provide the serial drug dilutions for the replicate daughter plates, the wells of columns 2 through 12 of standard 96-well microdilution plates (Costar 3795) were filled with 150 μl of the designated diluent for each row of drug. The test articles and comparator compounds (300 μl at 100× the highest concentration to be tested) were dispensed into the appropriate wells in column 1. The Biomek 2000 was then used to make 2-fold serial dilutions in the mother plates from column 1 through column 11. The wells of column 12 contained no drug and served as the organism growth control wells for the assay.
(§4) The daughter plates were loaded with 190 μL per well of the appropriate test medium for the tested organism using the Multidrop 384. The daughter plates were completed on the Biomek FX instrument which transferred 2 μL of drug solution from each well of a mother plate to the corresponding well of each daughter plate in a single step. Daughter plates for the testing of anaerobes were allowed to pre-reduce in the Bactron II anaerobe chamber for 2 hr prior to inoculation.

[1] = system: Staphylococcus aureus ATCC 29213; assay: Broth microdilution MIC assay, quality control strain (Example 2); type: cell-based; details: ATCC29213, S. aureus ATCC 29213 (QC), CAMHB
Protocol: as §1
Cation-adjusted Mueller Hinton broth (CAMHB; BD; Lot No. 9019592) was used for MIC testing of S. aureus ATCC 29213 for QC purposes.
as §2, §3, §4
A standardized inoculum of each test organism was prepared per CLSI methods (1, 2). The inoculum for each organism was dispensed into sterile reservoirs divided by length (Beckman Coulter), and the Biomek 2000 was used to inoculate the plates. Daughter plates were placed on the Biomek 2000 work surface in reverse orientation so that inoculation took place from low to high drug concentration. Anaerobic organisms were inoculated by hand in the Bactron II anaerobic chamber. Bacterial plates were then inoculated with 10 μL of the inoculum resulting in a final cell density of approximately 5×10^5 CFU/mL.
Plates were stacked 3 to 4 high, covered with a lid on the top plate and placed in plastic bags. […] The MIC was read and recorded as the lowest concentration of drug that inhibited visible growth of the organism.

[2] = system: Staphylococcus aureus ATCC 29213; details: S. aureus ATCC 29213, CLSI QC ranges shown in parentheses, cited from earlier work
[3] = 30 isolates of N. gonorrhoeae, broth microdilution, MIC distribution
[4] = 30 isolates, broth dilution assay, MIC distribution (Table 6)

For CC[C@H]1OC(=O)[C@H](C)[C@@H](O[C@H]2C[C@@](C)(OC)[C@@H](O)[C@H](C)O2)[C@H](C)[C@@H](O[C@@H]2O[C@H](C)C[C@H](N(C)C)[C@H]2O)[C@](C)(O)C[C@@H](C)CN(C)[C@H](C)[C@@H](O)[C@]1(C)O [AZI, azithromycin], the MIC (Neisseria gonorrhoeae) was 0.25 µg/mL (≈ 0.334 µM), the MIC90 (Neisseria gonorrhoeae; 30 isolates of N. gonorrhoeae, broth microdilution) was over 8 µg/mL and the “Number of isolates at MIC value 0.015 μg/mL” value (Neisseria gonorrhoeae; [3]) was 0. For the same compound, the “Number of isolates at MIC value 0.03 μg/mL” value (Neisseria gonorrhoeae; [3]) was 0, the “Number of isolates at MIC value 0.06 μg/mL” value (Neisseria gonorrhoeae; [3]) was 2 and the “Number of isolates at MIC value 0.5 μg/mL” value (Neisseria gonorrhoeae; [3]) was 2. For the same compound, the “Number of isolates at MIC value 1 μg/mL” value (Neisseria gonorrhoeae; [3]) was 1, the “Number of isolates at MIC value 2 μg/mL” value (Neisseria gonorrhoeae; [3]) was 2 and the “Number of isolates at MIC value 4 μg/mL” value (Neisseria gonorrhoeae; [3]) was 1. The “Number of isolates at MIC value 8 μg/mL” value (Neisseria gonorrhoeae; [3]) was 1, the “Number of isolates at MIC value >8 μg/mL” value (Neisseria gonorrhoeae; [3]) was 4 and the “Number of isolates at MIC 0.08 μg mL^−1” value (Neisseria gonorrhoeae; [4]) was 0. The “Number of isolates at MIC ≤0.004 μg mL^−1” value (Neisseria gonorrhoeae; [4]) was 0, the MIC (Neisseria gonorrhoeae; Neisseria gonorrhoeae, ATCC49226, N. gonorrhoeae ATCC 49226 (QC), broth microdilution, read-out: MIC) was 0.25 µg/mL (≈ 0.334 µM) and the MIC (Neisseria gonorrhoeae; Neisseria gonorrhoeae, N. gonorrhoeae CDC 0165 (CIP-R, AZI MIC 1), broth microdilution, read-out: MIC) was 1 µg/mL (≈ 1.34 µM). The MIC (Neisseria gonorrhoeae; Neisseria gonorrhoeae, N. gonorrhoeae CDC 0166 (CIP-R, AZI MIC 1), broth microdilution, read-out: MIC) was 0.5 µg/mL (≈ 0.668 µM), the MIC (Neisseria gonorrhoeae; Neisseria gonorrhoeae, N. gonorrhoeae CDC 0167 (CIP-S, AZI MIC 8), broth microdilution, read-out: MIC) was over 8 µg/mL and the MIC (Neisseria gonorrhoeae; Neisseria gonorrhoeae, N. gonorrhoeae CDC 0172 (CIP-R, AZI MIC 0.5), broth microdilution, read-out: MIC) was 0.25 µg/mL (≈ 0.334 µM). It also gave an MIC (Neisseria gonorrhoeae; Neisseria gonorrhoeae, N. gonorrhoeae CDC 0175 (CIP-S, AZI MIC 16), broth microdilution, read-out: MIC) of over 8 µg/mL, an MIC (Neisseria gonorrhoeae; Neisseria gonorrhoeae, N. gonorrhoeae CDC 0177 (CIP-S, AZI MIC 2), broth microdilution, read-out: MIC) of 2 µg/mL (≈ 2.67 µM) and an MIC (Neisseria gonorrhoeae; Neisseria gonorrhoeae, N. gonorrhoeae CDC 0181 (CIP-S, AZI MIC 256), broth microdilution, read-out: MIC) of over 8 µg/mL. The MIC (Neisseria gonorrhoeae; Neisseria gonorrhoeae, N. gonorrhoeae CDC 0194 (CRO-NS, CIP-S, AZI MIC 0.5), broth microdilution, read-out: MIC) was 0.25 µg/mL (≈ 0.334 µM), the MIC (Neisseria gonorrhoeae; Neisseria gonorrhoeae, N. gonorrhoeae MMX 6921 (CIP-R), broth microdilution, read-out: MIC) was 8 µg/mL (≈ 10.7 µM) and the MIC (Neisseria gonorrhoeae; Neisseria gonorrhoeae, N. gonorrhoeae MMX 6938 (CIP-S), broth microdilution, read-out: MIC) was 0.25 µg/mL (≈ 0.334 µM). It also gave an MIC (Neisseria gonorrhoeae; Neisseria gonorrhoeae, N. gonorrhoeae MMX 10409 (CIP-R), broth microdilution, read-out: MIC) of 0.25 µg/mL (≈ 0.334 µM), an MIC (Neisseria gonorrhoeae; Neisseria gonorrhoeae, N. gonorrhoeae MMX 10410 (CIP-S), broth microdilution, read-out: MIC) of 0.12 µg/mL (≈ 0.16 µM) and an MIC (Neisseria gonorrhoeae; Neisseria gonorrhoeae, N. gonorrhoeae MMX 10447 (CIP-S), broth microdilution, read-out: MIC) of 0.06 µg/mL (≈ 0.0801 µM). For the same compound, the MIC (Neisseria gonorrhoeae; Neisseria gonorrhoeae, N. gonorrhoeae MMX 10450 (CIP-S), broth microdilution, read-out: MIC) was 0.12 µg/mL (≈ 0.16 µM), the MIC (Neisseria gonorrhoeae; Neisseria gonorrhoeae, N. gonorrhoeae MMX 10452 (CIP-R), broth microdilution, read-out: MIC) was 0.12 µg/mL (≈ 0.16 µM) and the MIC (Neisseria gonorrhoeae; Neisseria gonorrhoeae, N. gonorrhoeae MMX 10454 (CIP-R), broth microdilution, read-out: MIC) was 0.12 µg/mL (≈ 0.16 µM). It also gave an MIC (Neisseria gonorrhoeae; Neisseria gonorrhoeae, NCTC13477, N. gonorrhoeae NCTC 13477 (WHO F; CIP-S, AZI MIC […]), broth microdilution, read-out: MIC) of 0.06 µg/mL (≈ 0.0801 µM), an MIC (Neisseria gonorrhoeae; Neisseria gonorrhoeae, NCTC13478, N. gonorrhoeae NCTC 13478 (WHO G; CIP-I, AZI MIC […]), broth microdilution, read-out: MIC) of 0.25 µg/mL (≈ 0.334 µM) and an MIC (Neisseria gonorrhoeae; Neisseria gonorrhoeae, NCTC13479, N. gonorrhoeae NCTC 13479 (WHO K; CIP-R, AZI MIC […]), broth microdilution, read-out: MIC) of 0.25 µg/mL (≈ 0.334 µM). The MIC (Neisseria gonorrhoeae; Neisseria gonorrhoeae, NCTC13480, N. gonorrhoeae NCTC 13480 (WHO L; CIP-R, AZI MIC 0.5), broth microdilution, read-out: MIC) was 0.25 µg/mL (≈ 0.334 µM), the MIC (Neisseria gonorrhoeae; Neisseria gonorrhoeae, NCTC13481, N. gonorrhoeae NCTC 13481 (WHO M; CIP-R, AZI MIC […]), broth microdilution, read-out: MIC) was 0.12 µg/mL (≈ 0.16 µM) and the MIC (Neisseria gonorrhoeae; Neisseria gonorrhoeae, NCTC13482, N. gonorrhoeae NCTC 13482 (WHO N; CIP-R, AZI MIC […]), broth microdilution, read-out: MIC) was 0.12 µg/mL (≈ 0.16 µM). For the same compound, the MIC (Neisseria gonorrhoeae; Neisseria gonorrhoeae, NCTC13483, N. gonorrhoeae NCTC 13483 (WHO O; CIP-S, AZI MIC […]), broth microdilution, read-out: MIC) was 0.25 µg/mL (≈ 0.334 µM), the MIC (Neisseria gonorrhoeae; Neisseria gonorrhoeae, NCTC13484, N. gonorrhoeae NCTC 13484 (WHO P; CIP-S, AZI MIC 4), broth microdilution, read-out: MIC) was 4 µg/mL (≈ 5.34 µM) and the MIC (Neisseria gonorrhoeae; Neisseria gonorrhoeae, NCTC13817, N. gonorrhoeae NCTC 13817 (WHO U; CIP-S, AZI MIC 4), broth microdilution, read-out: MIC) was 2 µg/mL (≈ 2.67 µM). The MIC (Neisseria gonorrhoeae; Neisseria gonorrhoeae, NCTC13818, N. gonorrhoeae NCTC 13818 (WHO V; CIP-R, AZI MIC >256), broth microdilution, read-out: MIC) was over 8 µg/mL, the MIC (Neisseria gonorrhoeae; Neisseria gonorrhoeae, NCTC13819, N. gonorrhoeae NCTC 13819 (WHO W; CIP-R, AZI MIC 0.5), broth microdilution, read-out: MIC) was 0.25 µg/mL (≈ 0.334 µM) and the MIC (Neisseria gonorrhoeae; Neisseria gonorrhoeae, NCTC13820, N. gonorrhoeae NCTC 13820 (WHO X; CRO-NS, CIP-R, AZI MIC 0.5), broth microdilution, read-out: MIC) was 0.25 µg/mL (≈ 0.334 µM). The MIC (Neisseria gonorrhoeae; Neisseria gonorrhoeae, NCTC13821, N. gonorrhoeae NCTC 13821 (WHO Y; CIP-R, AZI MIC 1), broth microdilution, read-out: MIC) was 0.5 µg/mL (≈ 0.668 µM), the MIC50 (Neisseria gonorrhoeae; Neisseria gonorrhoeae, 30 isolates of N. gonorrhoeae, broth microdilution, read-out: MIC50) was 0.25 µg/mL (≈ 0.334 µM) and the MIC90 (Neisseria gonorrhoeae; Neisseria gonorrhoeae, 30 isolates of N. gonorrhoeae, broth microdilution, read-out: MIC90) was over 8 µg/mL. For the same compound, the MIC (Neisseria gonorrhoeae; Neisseria gonorrhoeae, 30 isolates of N. gonorrhoeae, broth microdilution, read-out: MIC Mode) was 0.25 µg/mL (≈ 0.334 µM), the MIC [1] was 0.5 µg/mL (≈ 0.668 µM) and the “CLSI QC range of MIC” value [2] was 0.5 to 2 µg/mL. For the same compound, the “CLSI QC range of MIC” value ([2]; listed as Azithromycin) was “(0.5-2)^1 μg/mL”.
